According to PubChem BioAssay (NCI):
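In this assay, cells in 96-well plates receive the compound at five concentrations for 48 hours. Endpoints are linearly interpolated between the surrounding concentrations. At the GI50, growth is halved. Definition used: TGI = concentration required for complete inhibition of growth.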

Assays:
Assay in all cases: inhibition of tumour cell growth, NCI panel, 48 h
NCI-H522 lung = system: NCI-H522 lung
SF-295 CNS = system: SF-295 CNS
EKVX NSCLC = system: EKVX NSCLC
HCT-15 colon = system: HCT-15 colon
NCI-H226 lung = system: NCI-H226 lung
RPMI-8226 leukemia = system: RPMI-8226 leukemia
HOP-92 NSCLC = system: HOP-92 NSCLC
COLO 205 colon = system: COLO 205 colon
SK-MEL-28 melanoma = system: SK-MEL-28 melanoma
SF-268 CNS = system: SF-268 CNS
HT29 colon = system: HT29 colon
SK-MEL-5 melanoma = system: SK-MEL-5 melanoma
SNB-75 CNS = system: SNB-75 CNS
UO-31 renal = system: UO-31 renal
DMS 273 small cell lung = system: DMS 273 small cell lung
HCT-116 colon = system: HCT-116 colon
MALME-3M melanoma = system: MALME-3M melanoma

Compound	TGI (NCI-H522 lung) [µM]	TGI (SF-295 CNS) [µM]	TGI (EKVX NSCLC) [µM]	TGI (HCT-15 colon) [µM]	TGI (NCI-H226 lung) [µM]	TGI (RPMI-8226 leukemia) [µM]	TGI (HOP-92 NSCLC) [µM]	TGI (COLO 205 colon) [µM]	TGI (SK-MEL-28 melanoma) [µM]	TGI (SF-268 CNS) [µM]	TGI (HT29 colon) [µM]	TGI (SK-MEL-5 melanoma) [µM]	TGI (SNB-75 CNS) [µM]	TGI (UO-31 renal) [µM]	TGI (DMS 273 small cell lung) [µM]	TGI (HCT-116 colon) [µM]	TGI (MALME-3M melanoma) [µM]	GI50 (SF-295 CNS) [µM]	GI50 (RPMI-8226 leukemia) [µM]	GI50 (HOP-92 NSCLC) [µM]
C=CC1OC(CCCOC(=O)C(C)(C)C)O[C@@H]1CC (some centres undefined)	> 100	> 100	> 100	> 100	> 100	> 100	> 100	> 100	> 100	> 100	> 100	> 100	> 100	> 100						
C=C(C)C1Cc2c(cc(O)c3c(=O)c4ccccc4n(C)c23)O1 (centres undefined)	66.1	79.6		> 100	> 100	> 100	54.5	> 100	> 100	73	> 100	> 100	37.2		> 100	> 100	> 100			
C/C=C(/C)C(=O)O[C@@H]1c2c(C)coc2C[C@H]2CC[C@H](O)[C@H](C)[C@]21C	> 100	> 100	> 100	> 100	> 100	> 100	> 100	> 100	> 100	> 100	> 100	> 100		> 100		> 100	77.9			
O=[N+]([O-])c1ccc(/C=C/c2ccc(N=Nc3ccc(/C=C/c4ccc([N+](=O)[O-])cc4S(=O)(=O)O)c(S(=O)(=O)O)c3)cc2S(=O)(=O)O)c(S(=O)(=O)O)c1	> 100	> 100	> 100	> 100	> 100		> 94.3	> 100	> 100	> 100	> 100	> 100	> 100	> 100	> 100	> 100	> 100			
O=C(O)Cc1ccc(N2N=C(c3ccccc3)CC2=O)cc1	> 100	> 100	> 100	> 100	> 100			> 100	> 100	> 100	> 100	> 100	> 100	> 100		> 100	> 100			
COc1ccc(/C(Cl)=C(\C=O)c2ccc(F)cc2)cc1	24.8	31.6	> 100	31.2	67.9	44.6	19.1	31.9	> 100	89.3	27.8	27.9	8.33	42.2	56.4	20	48			
[Cl-].[Rh+3].c1ccc(-c2ccnc3c2ccc2c(-c4ccccc4)ccnc23)cc1.c1ccc(-c2ccnc3c2ccc2c(-c4ccccc4)ccnc23)cc1.c1ccc(-c2ccnc3c2ccc2c(-c4ccccc4)ccnc23)cc1	> 85.1	> 100	> 91.7	> 100	> 100	> 100	> 77.9	43.3	> 100	> 100	73.7	50.3	> 100	> 100	83.1	> 100	82.9	31.3	29.2	19
CN(C)CCNCc1c2ccccc2c(CNCCN(C)C)c2ccccc12	> 100	> 100	> 100	> 100	47	> 100	47.3	22.3	> 100	> 90.5	40.6	17.9	> 100	> 100	> 100	> 90.1	35.4			
COC(=O)[C@@H]1c2cc3c(c(O)c2[C@@H](OC)C[C@@]1(C)O)C(=O)c1c(O)cc2c(c1C3=O)OC1O[C@@]2(C)[C@H](O)[C@@H](N(C)C)[C@@H]1O	1.9	0.97	1.33	2.23	0.877	> 150	0.14	1.98		3.02	2	1.05	0.977	3.12	0.779	1.58	2.13			
